Reference: BindingDB's records for doi:10.1021/jm0200660 (Berlex Biosciences, 2002)
pKi: −log10 of the molar value.

Target: Cationic trypsin (Bos taurus)
Assay: Inhibitory constant against bovine trypsin for general specificity against serine proteases

## Cc1c(F)c(Oc2cccc(C(=N)N)c2)nc(Oc2cccc(C(N)=O)c2)c1F [3-[6-(3-Carbamimidoyl-phenoxy)-3,5-difluoro-4-methyl-pyridin-2-yloxy]-benzamide]
  pKi: < 5.30
